Patent US20170266174A1, “Compositions and Methods for Extending Lifespan” (COLLABORATIVE MEDICINAL DEVELOPMENT LLC, priority 2014, published 2017)
Entries after “also recorded” stand apart in the source; their conditions may differ.

Legend:
[1] = test system: lysates of young adult wild type C. elegans; experiment: Ex vivo ROS production detected by DCF fluorescence from C. elegans lysates; assay type: biochemical, Caenorhabditis elegans; conditions: 50 μM DTPA added to lysate (10 μg) of young adult wild type
Protocol: 2′,7′-dichlorodihydrofluorescein diacetate (DCFH-DA) at 10 μM was used as a fluorescent probe for reactive oxygen species (ROS) detection in vivo using standard protocols (33). DCFH-DA enters and accumulates in the intestinal cells, where it is oxidized by several ROS (including hydroxyl radicals) to form the fluorophore DCF(34). Analysis of fluorescence rate increase was performed on samples sonicated in 1×TBS, pH 7.4 and recovered as the supernatant from a 100,000 g centrifugation at 4° C. Total protein concentration was determined by a Nanodrop spectrophotometer (Thermo Scientific). […] Fluorescence in 8 replicate wells was quantitated (Ex: 485 nm, Em: 535 nm using a 495 nm cut-off) by a FlexStation (Molecular Devices) plate reader, using 30 reads every minute for 1 h at medium PMT setting. Values from lysate-free (negative) controls were subtracted and the fluorescence data was then base line corrected. A linear regression fitted from 20-40 minutes and the slopes were normalized against 4-day old wild type and plotted (Prism v5.0d, Graphpad Software).

C. elegans [2] = experiment: SEC-ICP-MS (LC-ICP-MS) chromatographic distribution of iron in SIH-treated C. elegans; assay type: in vivo, Caenorhabditis elegans
Protocol: Samples were homogenized in TBS (pH 8.0) with added proteinase inhibitors (EDTA-free, Roche), then clarified by a 15 min centrifugation at 175,000 g, 4° C. The protein concentration of the supernatant was determined via UV absorbance (Nanodrop, ThermoScientific) and equivalent protein amounts were size-excluded using a Bio SEC-5 (4.6×300 mm, 5 μm, Agilent) column with 200 mM ammonium nitrate (trace analysis grade, Sigma) pH 8.0 buffer the flow rate was 0.4 mL/min at 30° C. The eluant from the column was directly connected to the ICP-MS for elemental detection as previously described (37).

C. elegans [3] = experiment: Lifespan analysis of C. elegans treated with SIH; assay type: in vivo, Caenorhabditis elegans; conditions: for median lifespan: 25° C., treated from adulthood onwards, control (0 μM SIH) 12 days
Protocol: The effects of genetic ablation of ftn-2 and ftn-1 on wild type was measured using established protocols(11, 38). For SIH treatment compound was dissolved in dimethyl sulfoxide (Sigma-Aldrich) then added to the molten NGM at 55° C. along with 50 μg/mL amplicillin (Sigma-Aldrich). Media containing equivalent vehicle alone (0.5% v/v DMSO) and ampicillin was used for comparison. SIH data was collected using the temperature sensitive-sterile strain TJ1060. All life span assays were conducted at 25° C. following adulthood.
Kaplan-Maier survival curves were generated and compared via non-parametric Log rank tests (Prism v5.0d, Graphpad Software).

| Compound | ROS production (DCF fluorescence) effect [1] | Ferritin-bound iron (Peak #2) effect (C. elegans [2]; 250 μM SIH, 10 day old, integration of peak area) | LMW-iron (Peak #3) effect in words (C. elegans [2]; 250 μM SIH, 10 day old, integration of peak area from triplicate data) | HMW-iron (Peak #1) effect (C. elegans [2]; 250 μM SIH, C. elegans aged to 10 days) | LMW-iron (Peak #3) normalized peak area change (C. elegans [2]; 250 μM SIH, C. elegans aged to 10 days, versus control) [%] | total soluble zinc effect (C. elegans [2]; SIH treatment (data not shown)) | dose-dependency of lifespan extension (C. elegans [3]; 0, 100, 250 μM SIH) | median lifespan (C. elegans [3]; 100 μM SIH) [days] | median lifespan (C. elegans [3]; 250 μM SIH) [days] | increase in lifespan (C. elegans [3]; control versus 250 μM SIH median lifespan) [%] |
| --- | --- | --- | --- | --- | --- | --- | --- | --- | --- | --- |
| diethylenetriamine penta-acetic acid [DTPA] | abolished; also recorded: silenced | – | – | – | – | – | – | – | – | – |
| O=C(NN=Cc1ccccc1O)c1ccncc1 [SIH, salicylaldehyde isonicotinoyl hydrazone] | – | reduced; also recorded: decreased | reduced; also recorded: lowered; also recorded: attenuated | unaffected | −43 | unaffected | dose-dependency | 17 | 21 | 75 |
